“And” between values parts separate entries of the source, which are not always exact repeats. Equal entries are not always repeated. The source made the active and inactive calls.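 The calls were made as follows: active = EC50 under a set limit in control cells lacking the mosquito receptor, marking a fluorescence artifact; inactive = the rest.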

The target of this assay is HEK293 Galpha15/GCaMP6s without NPYLR7, calcium fluorescence. Kind of assay: calcium response in NPYLR7-null HEK293 cells, dose response, counter-screen for mosquito NPYLR7 agonist project, cell-based, HEK293 lacking NPYLR7 (AID 1259426).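 Also: potency for a rise in fluorescence over baseline.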
By EC50 is commonly meant the concentration at which the effect is half-maximal. Regarding `CCN1CCN(c2ccc(C(=O)C=Cc3ccc(O)c(OC)c3)cc2F)CC1`, the EC50 is 11.2 µM. In the case of `CCN1/C(=C/C2=CC(=O)CC(C)(C)C2)Sc2ccccc21`, the EC50 was 3.9 µM. The same measure for `COc1cc(/C=C(\C#N)C(=O)c2ccc(O)c(O)c2)cc(I)c1O`: 6.08 µM.

For `OC=c1ccc2cccc3nc(C(F)(F)F)nc1c23`, the EC50 was 11.2 µM. The value for `O=C(CSc1cn(CC(=O)N2CCCCCC2)c2ccccc12)NC1CCCC1` was > 20 µM (inactive); that for `O=C(Nc1cccc(-c2nnco2)c1)C1CCCCC1` was > 20 µM (inactive). The value for `O=C1c2cccc3c(NCC(O)CCl)ccc(c23)C(=O)N1c1ccccc1` (centres undefined) was under 0.039 µM; that for `COc1cc(C=C(C#N)C(=O)OC(C)C)cc(Cl)c1O` was > 20 µM (inactive).

Take `CN(C)c1ccc(/C=C2/SC(=S)N(CC(=O)O)C2=O)cc1Br`: the EC50 was 0.346 µM. As for `COc1cc(OC)c(OC)cc1/C=C1/SC(=S)N(CC(=O)O)C1=O`, the EC50 was 5.82 µM.

In the case of `Nc1ccc2c3c(cccc13)C(=O)NC2=O`, the EC50 was 2.07 µM. `CCN1CCN(Cc2c(O)cc(C)c3c2O/C(=C\c2ccco2)C3=O)CC1`: the EC50 was 9.72 µM. The value for `O=C1c2cccc3c(NCCO)ccc(c23)C(=O)N1CCO` was 0.0846 µM; that for `Nc1nc(Cl)nc2c1ncn2[C@@H]1O[C@H](COP(=O)(O)OP(=O)(O)OP(=O)(O)O)[C@H](O)C1O` (some centres undefined) was > 20 µM (inactive). The same measure for `CCN(CC)c1ccc(/C=C2/SC(=S)N(CC(=O)O)C2=O)cc1`: 0.355 µM. The same measure for `COc1cc(C=C2N=C(c3ccc4c(c3)OCO4)OC2=O)cc2c1OCCO2`: > 20 µM (inactive); for `CC(=O)[C@]1(O)Cc2c(O)c3c(c(O)c2[C@@H](O[C@H]2C[C@H](N)[C@H](O)[C@H](C)O2)C1)C(=O)c1ccccc1C3=O`: 4.29 µM. As for `CC(C)NC[C@H](O)c1ccc(O)c(O)c1`, the EC50 was under 0.039 µM.

With `COc1ccc2c(C)nc(N=C(N)N)nc2c1`, the EC50 was > 20 µM (inactive).

Regarding `CCOC(=O)c1ccccc1-c1c2ccc(=N)cc-2oc2cc(N)ccc12`, the EC50 was under 0.039 µM. Consider `Cc1cc2c(c(-c3ccc4c(cnn4C)c3)c1)OC(CN)C2` (centres undefined), for which the EC50 was > 20 µM (inactive). With `O=C1/C(=C/c2cccc(F)c2)Oc2c1ccc(O)c2CN1CCN(CCO)CC1`, the concentration giving a half-maximal response (EC50) is 13.9 µM. Take `COc1ccc(-n2ccnc2-c2nc(-c3cccs3)oc2C)cn1`: the EC50 was > 20 µM (inactive). The same measure for `O=[N+]([O-])c1ccc(-n2nc3ccc4nonc4c3n2)cc1`: > 20 µM (inactive).

`C#CCN1C(=O)SC(=Cc2ccc(N3CCCCC3)o2)C1=O`: the EC50 was 2.36 µM.

On to `O=C(O)CN1C(=O)/C(=C\c2ccc(O)cc2)SC1=S`, for which the EC50 is 13.3 µM. With `O=C(CC(c1cccc([N+](=O)[O-])c1)c1c[nH]c2ccccc12)NC1CC1` (centres undefined), the EC50 is > 20 µM (inactive). Turning to `OCCN(CCO)c1nc(N2CCCCC2)c2nc(N(CCO)CCO)nc(N3CCCCC3)c2n1`, the EC50 was 3.58 µM and 1.94 µM. As to `CC(C)N=c1c([N+](=O)[O-])nn(-c2ccc(Cl)cc2)n1O`, the EC50 was > 20 µM (inactive). The value for `CNC[C@@H](O)c1ccc(O)c(O)c1` was under 0.039 µM; that for `CCN1CC=C2C(C#N)C(=N)C(C#N)(C#N)C(c3cccs3)C2C1` (centres undefined) was > 20 µM (inactive); that for `CC(C)C(C(=O)O)N1C(=O)/C(=C/c2ccc(O)cc2)SC1=S` (centres undefined) was 8.26 µM. With `CC(C)NC(=O)C(C)N1CCc2onc(-c3ccc(C(F)(F)F)cc3)c2C1` (centres undefined), the concentration giving a half-maximal response (EC50) was 8.58 µM.

In the case of `CCN(CC)C1=CC2=CC(=C(C#N)C#N)CCC2CC1` (centres undefined), the EC50 was under 0.039 µM. The same measure for `COc1ccc(NC[C@@H]2C=C(C)[C@H](Cc3nnc(C)o3)C[C@H]2C(C)C)cn1`: 13.3 µM; for `Cc1cc(O)c(CN2CCCCC2)c2c1C(=O)/C(=C/c1cc3ccccc3o1)O2`: 18.5 µM; for `Nc1nc(Cl)nc2c1ncn2[C@@H]1O[C@H](CO)[C@H](O)C1O` (some centres undefined): 1.42 µM. The same measure for `CCCCN(C)C1=CC2=CC(=C(C#N)C#N)CCC2CC1` (centres undefined): under 0.039 µM; for `Cc1ccc(/C=C2/Oc3cc(O)ccc3C2=O)s1`: 17.2 µM; for `CC(C)(C)c1cnc(CSc2cnc(NC(=O)C3CCNCC3)s2)o1`: > 20 µM (inactive).

On to `CC[C@@]1(O)C(=O)OCc2c1cc1n(c2=O)Cc2cc3c(CN(C)C)c(O)ccc3nc2-1`, for which the EC50 was 0.188 µM and 1.35 µM. For `CCn1c(O)c(C=Nc2c(C#N)c(C)c(C)n2C2CCCCC2)c(=O)n(CC)c1=S`, the EC50 is 1.31 µM.

Turning to `COc1ccc(/C=C2\Oc3c(ccc4c3CN(Cc3ccncc3)CO4)C2=O)cc1OC`, the EC50 is 9.55 µM. For `CCN(CC)CC[n+]1c(C)cc(C=C2Sc3ccccc3N2C)cc1C`, the EC50 is > 20 µM (inactive). As to `O=C1/C(=C/c2cccc(Br)c2)Oc2c1ccc(O)c2CN1CCN(CCO)CC1`, the EC50 was 12.7 µM. The same measure for `N#Cc1cc2cc(Cl)cc(Cl)c2oc1=O`: 1.94 µM. The same measure for `O=C1c2ccccc2-c2nn(CN3CCN(c4ccccc4)CC3)c3cccc1c23`: > 20 µM (inactive). Consider `CNC(=O)c1cnc(/C=C/c2csc(-c3ccsc3)n2)[nH]c1=O`, for which the EC50 is > 20 µM (inactive).

For the molecule `COc1ccc(N2C(=O)/C(=C\c3ccc[nH]3)N(C)C2=S)c([N+](=O)[O-])c1`, the EC50 is > 20 µM (inactive). The value for `CN1C(=S)N(c2ccc3c(c2)CCC3)C(=O)/C1=C\c1ccncc1` was > 20 µM (inactive); that for `O=C(O)c1csc(CSc2nnc(-c3ccncc3)n2-c2cccc(C(F)(F)F)c2)n1` was > 20 µM (inactive); that for `Fc1cc(F)cc(C2C=C(c3ccco3)Nc3ncnn32)c1` (centres undefined) was 8.31 µM. The value for `CNCC(O)c1ccc(O)c(O)c1` (centres undefined) was 0.327 µM; that for `Cn1c(/C(C#N)=C/c2ccc(N3CCOCC3)o2)nc2ccccc21` was > 20 µM (inactive). The value for `CCN1CCN(Cc2c(O)ccc3c2O/C(=C\c2cc4cc(Br)ccc4o2)C3=O)CC1` was 6.94 µM; that for `COCCCN1COc2ccc3c(c2C1)O/C(=C\c1cc(OC)c(OC)c(OC)c1)C3=O` was 11.4 µM; that for `COC(=O)c1cc(N)c(/C=C/c2cccs2)s1` was 0.577 µM. Regarding `Cc1ccc(-c2nc3nc(N)n(C)c(=O)c3[nH]c2=O)cc1`, the EC50 was > 20 µM (inactive). The same measure for `N#CC(C#N)=C1C=C2C=C(N3CCCCCC3)CCC2CC1` (centres undefined): under 0.039 µM. The same measure for `O=C(Cc1ccc2c(c1)CCC2)NCC1CCN(c2ccccc2)C1` (centres undefined): > 20 µM (inactive); for `CC[n+]1c(/C=C/C=C2/N(C)c3ccccc3C2(C)C)sc2ccccc21`: > 20 µM (inactive); for `COc1ccc(S(=O)(=O)NCC2CCCN(C(=O)CSc3ccccc3)C2)cc1` (centres undefined): > 20 µM (inactive). Turning to `COc1ccc(CN2CCN(Cc3cccn3-c3ncccn3)CC2CCO)c(C)c1C` (centres undefined), the EC50 is > 20 µM (inactive). The value for `COc1cccc(CNC2CC2)c1OCc1nc(CO)cs1` was > 20 µM (inactive). On to `CCCCCn1c(=O)c2c(nc3n2CCN3c2cc(C)cc(C)c2)n(C)c1=O`, for which the EC50 is > 20 µM (inactive). With `O=[N+]([O-])c1ccc(Cl)c2nonc12`, the concentration giving a half-maximal response (EC50) is 4.83 µM.

Take `Cc1cccc(N2C(=O)NC(=O)/C(=C/c3cn(C)c4ccccc34)C2=O)c1`: the EC50 is > 20 µM (inactive).

In the case of `CCOC(=O)N1CCN(c2ccc(/C=C(\C#N)c3nc4ccccc4[nH]3)o2)CC1`, the EC50 was > 20 µM (inactive).

For the molecule `COc1cc(NC(=O)N2CC(=O)N3CCc4c(F)cccc4C3C2)cc(OC)c1OC` (centres undefined), the EC50 was > 20 µM (inactive). Consider `COc1cc(/C=C/c2nc3ccccc3o2)cc(Cl)c1O`, for which the EC50 was 1.7 µM. For the molecule `CC(C(=O)O)N1C(=O)/C(=C/c2ccc(N(C)C)cc2)SC1=S` (centres undefined), the EC50 is 7.74 µM.

Consider `Cc1ccccc1CNc1ncnc2c1ncn2C1OC(CO)C(O)C1O` (centres undefined), for which the EC50 is 6.77 µM. Turning to `Cc1cc(O)c(CN2CCN(C)CC2)c2c1C(=O)/C(=C/c1cccs1)O2`, the EC50 is 16.8 µM. The same measure for `COc1cc(-c2nc3n(n2)C(c2ccc(O)cc2)C(C(N)=O)=C(C)N3)cc(OC)c1OC` (centres undefined): > 20 µM (inactive); for `CCC(C)[n+]1c(C)cc(C=C2Sc3ccccc3N2C)cc1C` (centres undefined): 7.94 µM. The value for `C[C@H]1O[C@H](O[C@@H]2[C@@H](O[C@H]3CC[C@@]4(C)C(CC[C@]5(C)C4CC=C4[C@@H]6CC(C)(C)CC[C@]6(C(=O)O)CC[C@]45C)[C@]3(C)CO)OC[C@@H](O)[C@H]2O)[C@@H](O)[C@H](O)[C@@H]1O` (some centres undefined) was 9.92 µM; that for `C[C@@H]1OC(O[C@H]2[C@H](OC(=O)[C@]34CCC(C)(C)CC3C3=CCC5[C@@]6(C)CC[C@H](OC7O[C@@H](C)[C@H](O[C@@H]8OC[C@@H](O)[C@H](O)[C@H]8O)[C@@H](O)[C@H]7O)C(C)(C)C6CC[C@@]5(C)[C@]3(C)CC4O)OC[C@H](O)[C@H]2O)[C@H](O)[C@H](O)[C@H]1O[C@@H]1O[C@H](CO)[C@@H](O)[C@H](O)[C@H]1O` (some centres undefined) was 10.3 µM; that for `CCc1nn(C(C)C(=O)NC(C)CCc2ccco2)c(=O)c2cc3occc3n12` (centres undefined) was 0.743 µM. The same measure for `NC(=NC1C2CC3CC(C2)CC1C3)Nc1ccc(I)cc1` (centres undefined): 14.1 µM. Consider `Cc1cc(O)c(CN2CCCC2)c2c1C(=O)/C(=C/c1cc3ccccc3o1)O2`, for which the EC50 is > 20 µM (inactive). The value for `O=c1oc2cc(O)ccc2cc1-c1nc2ccccc2o1` was 4.91 µM; that for `Cc1ccc(C)c(C2C(C#N)C(=N)SC(=N)C2C#N)c1` (centres undefined) was 11.9 µM. Take `CCC1CN(C(=O)c2cc(C(C)C)on2)CCC(=O)N1Cc1ccccc1` (centres undefined): the EC50 was > 20 µM (inactive). As for `CC(C)N1CCc2c(sc(NC(=O)C3CC3)c2-c2nc3ccccc3s2)C1`, the EC50 is 4.79 µM. The value for `COc1ccc(/C=C2\Oc3c(ccc4c3CN(CC3CCCO3)CO4)C2=O)cc1OC` (centres undefined) was 4.8 µM; that for `C=CCN1C(=O)C(Cc2ccc(OC)cc2)S/C1=N/N=C\c1cccs1` (centres undefined) was > 20 µM (inactive). The same measure for `COc1cc(C=C(C#N)S(=O)(=O)c2ccc(Cl)cc2)cc(Cl)c1O`: > 20 µM (inactive); for `CCN1CC(=Cc2cc(C)n(C3CC3)c2C)C(=O)C(=Cc2cc(C)n(C3CC3)c2C)C1`: > 20 µM (inactive); for `CC(C)C(=O)Nc1sc2c(c1-c1nc3ccccc3s1)CCN(C)C2`: > 20 µM (inactive).

The record behind these values is PubChem BioAssay AID1259426 (Fisher Drug Discovery Resource Center, 2018).
